Reference: patent publication US9113629B2, “4-amino-6-(4-substituted-phenyl)-picolinates and 6-amino-2-(4-substituted-phenyl)-pyrimidine-4-carboxylates and their use as herbicides” (DOW AGROSCIENCES LLC, priority 2013, dated 2015)
Like-named read-outs stand apart in the source and are kept apart here.

Experiments:
Assay type in all cases: in vivo
[1] = tested on: VIOSS: wild pansy (Viola tricolor), field violet (Viola arvensis); assay: Post-emergent Test III, herbicidal activity in wheat and barley; details: for GR50 VIOSS: dose for 50 percent growth reduction; for GR50 VIOSS / GR80 VIOSS: probit analysis; for GR80 VIOSS: dose for 80 percent growth reduction; for pest or weed control at 35 g/ha: 35 g ai/ha; for pest or weed control at 70 g/ha: 70 g ai/ha
In short: (§1)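 GR20, GR50, GR80 and GR90 come from probit analysis of visual injury scores (0 = none, 100 = complete kill) taken 21 d after treatment. Foliar application was by track sprayer delivering 187 L/ha at five rates, from high down to 1/16×, onto greenhouse plants at the 2–3 leaf stage, with solvent-blank controls.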

[2] = tested on: CIRAR: Canada thistle (Cirsium arvense); assay: as above; details: Table 8, 21 d; for pest or weed control at 35 g/ha: 35 g ai/ha; for pest or weed control at 70 g/ha: 70 g ai/ha; for GR50 CIRAR: dose for 50 percent growth reduction; for GR50 CIRAR / GR80 CIRAR: probit analysis; for GR80 CIRAR: dose for 80 percent growth reduction
In short: as §1

[3] = tested on: GALAP: cleavers (Galium aparine); assay: as above; details: Table 8, 21 d; for pest or weed control at 35 g/ha: 35 g ai/ha; for pest or weed control at 70 g/ha: 70 g ai/ha; for GR50 GALAP: dose for 50 percent growth reduction; for GR50 GALAP / GR80 GALAP: probit analysis; for GR80 GALAP: dose for 80 percent growth reduction
In short: as §1

[4] = tested on: ECHCG: barnyardgrass (Echinochloa crus-galli); assay: Pre-emergent Test I herbicidal activity; details: pre-emergence, 336 h, read-out: Visual Growth Reduction (%) 14 Days After Application, ECHCG; for pest or weed control at 3840 g/ha: 3.84 kg ai/ha; for pest or weed control at 4000 g/ha: 4 kg ai/ha
In short: (§2)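 Sandy loam pots; sub-irrigation 16 h pre-application; soil-surface application then water incorporation; greenhouse ~15 h light, 23-29° C day / 22-28° C night; 0-100 rating at 14 DAT vs controls.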

[5] = tested on: AVEFA: wild oats (Avena fatua); assay: Pre-emergent Test I herbicidal activity; details: pre-emergence, 336 h, read-out: Visual Growth Reduction (%) 14 Days After Application, AVEFA
In short: as §2

[6] = tested on: HELAN: sunflower (Helianthus annuus); assay: Pre-emergent Test I herbicidal activity; details: pre-emergence, 336 h, read-out: Visual Growth Reduction (%) 14 Days After Application, HELAN; for pest or weed control at 3840 g/ha: 3.84 kg ai/ha; for pest or weed control at 4000 g/ha: 4 kg ai/ha
In short: as §2

[7] = Viola tricolor, post-emergence, 504 h, Table 8, post-emergent, 21 d, read-out: Visual Growth Reduction (%) 21 Days After Application VIOSS
[8] = Cirsium arvense, post-emergence, 504 h, post-emergent, read-out: Visual Growth Reduction (%) 21 Days After Application CIRAR
[9] = Galium aparine, post-emergence, 504 h, post-emergent, read-out: Visual Growth Reduction (%) 21 Days After Application GALAP
[10] = Viola tricolor, post-emergence, 504 h, 21 days after application, read-out: Visual Gorowth Reduction (%) 21 days After Application VIOSS

SMILES	GR50 VIOSS ([1]; Table 8, 21 d)	GR80 VIOSS ([1]; Table 8, 21 d)	pest or weed control at 35 g/ha [1, 7]	pest or weed control at 70 g/ha [1, 7]	pest or weed control at 35 g/ha [2, 8]	pest or weed control at 70 g/ha [2, 8]	GR50 CIRAR [2]	GR80 CIRAR [2]	pest or weed control at 35 g/ha [3, 9]	pest or weed control at 70 g/ha [3, 9]	GR50 GALAP [3]	GR80 GALAP [3]	further results
Nc1cc(-c2cc(F)c(Br)cc2F)nc(C(=O)O)c1Cl [Compound 3]	4 g ai/ha	7 g ai/ha	95 to 100%	95 to 100%	60 to 74%	75 to 84%	18 g ai/ha	53 g ai/ha	95 to 100%	95 to 100%	5 g ai/ha	7 g ai/ha	
COC(=O)c1nc(-c2ccc(C#N)cc2F)cc(N)c1Cl [Compound 16]													pest or weed control at 3840 g/ha [4]: 30 to 44%; pest or weed control at 3840 g/ha ([5]; 3.84 kg ai/ha): 30 to 44%; pest or weed control at 3840 g/ha [6]: 95 to 100%
COC(=O)c1nc(-c2ccc(I)c(F)c2)nc(N)c1OC [Compound 27, Methyl 6-amino-2-(3-fluoro-4-iodophenyl)-5-methoxypyrimidine-4-carboxylate]	8 g ai/ha	27 g ai/ha	75 to 84%	95 to 100%	75 to 84%	75 to 84%	18 g ai/ha	70 g ai/ha	85 to 94%	85 to 94%	5 g ai/ha	25 g ai/ha	
COc1c(N)nc(-c2ccc(I)c(F)c2)nc1C(=O)O [Compound 37, 6-Amino-2-(3-fluoro-4-iodophenyl)-5-methoxypyrimidine-4-carboxylic acid]	12 g ai/ha	35 g ai/ha	75 to 84%	85 to 94%	45 to 59%	75 to 84%	23 g ai/ha	103 g ai/ha	85 to 94%	95 to 100%	14 g ai/ha	31 g ai/ha	
Nc1c(Cl)c(C(=O)O)nc(-c2ccc(Br)c(F)c2)c1Cl [Compound 43, 4-Amino-6-(4-bromo-3-fluorophenyl)-3,5-dichloropicolinic acid]	37 g ai/ha	>140 g ai/ha	45 to 59%	60 to 74%	85 to 94%	85 to 94%	0 g ai/ha	13 g ai/ha	95 to 100%	95 to 100%	2 g ai/ha	6 g ai/ha	
Nc1c(F)c(-c2cc(F)c(I)cc2F)nc(C(=O)O)c1Cl [Compound 69]													pest or weed control at 35 g/ha [1, 10]: 85 to 94%; pest or weed control at 70 g/ha [1, 10]: 95 to 100%; GR50 VIOSS ([1]; 21 days after application): 3 g ai/ha; GR80 VIOSS ([1]; 21 days after application): 8 g ai/ha
COC(=O)c1nc(-c2ccc(I)c(F)c2)c(C)c(N)c1Cl [Compound 79, Methyl 4-amino-3-chloro-6-(3-fluoro-4-iodophenyl)-5-methylpicolinate]	>140 g ai/ha	>140 g ai/ha	0 to 29%	0 to 29%	95 to 100%	95 to 100%	1 g ai/ha	5 g ai/ha	95 to 100%	95 to 100%	4 g ai/ha	6 g ai/ha	
C=Cc1c(C(=O)O)nc(-c2ccc(C(F)(F)F)c(F)c2)c(F)c1N [Compound 86]													pest or weed control at 35 g/ha [1, 10]: 60 to 74%; pest or weed control at 70 g/ha [1, 10]: 60 to 74%; GR50 VIOSS ([1]; 21 days after application): 21 g ai/ha; GR80 VIOSS ([1]; 21 days after application): 77 g ai/ha
COC(=O)c1nc(-c2ccc(Br)c(F)c2F)c(F)c(N)c1Cl [Compound 109, methyl 4-amino-6-(4-bromo-2,3-difluorophenyl)-3-chloro-5-fluoropicolinate]													pest or weed control at 4000 g/ha [4]: 95 to 100%; pest or weed control at 4000 g/ha ([5]; 4 kg ai/ha): 85 to 94%; pest or weed control at 4000 g/ha [6]: 75 to 84%
Nc1cc(-c2ccc(I)cc2F)nc(C(=O)O)c1Cl [Compound 124]	24 g ai/ha	49 g ai/ha	60 to 74%	95 to 100%	60 to 74%	75 to 84%	24 g ai/ha	91 g ai/ha	85 to 94%	95 to 100%	6 g ai/ha	21 g ai/ha	
Nc1c(Cl)c(C(=O)O)nc(-c2ccc(I)c(F)c2)c1Cl [Compound 145, 4-Amino-3,5-dichloro-6-(3-fluoro-4-iodophenyl)picolinic acid]	>140 g ai/ha	>140 g ai/ha	0 to 29%	0 to 29%	95 to 100%	85 to 94%	2 g ai/ha	7 g ai/ha	45 to 59%	75 to 84%	18 g ai/ha	54 g ai/ha	pest or weed control at 140 g/ha ([1]; Viola tricolor, post-emergence, 504 h, Table 8, 140 g ai/ha, post-emergent, 21 d, read-out: Visual Growth Reduction (%) 21 Days After Application VIOSS): 30 to 44%; pest or weed control at 140 g/ha ([2]; Cirsium arvense, post-emergence, 504 h, 140 g ai/ha, post-emergent, read-out: Visual Growth Reduction (%) 21 Days After Application CIRAR): 95 to 100%; pest or weed control at 140 g/ha ([3]; Galium aparine, post-emergence, 504 h, 140 g ai/ha, post-emergent, read-out: Visual Growth Reduction (%) 21 Days After Application GALAP): 95 to 100%
Nc1c(F)c(-c2ccc(Br)c(F)c2F)nc(C(=O)O)c1Cl [Compound 147]													pest or weed control at 3960 g/ha ([4]; 3.96 kg ai/ha): 95 to 100%; pest or weed control at 3960 g/ha ([5]; 3.96 kg ai/ha): 95 to 100%; pest or weed control at 3960 g/ha ([6]; 3.96 kg ai/ha): 95 to 100%
COC(=O)c1nc(-c2ccc(Br)c(F)c2)nc(N)c1OC [Compound 171, Methyl 6-amino-2-(4-bromo-3-fluorophenyl)-5-methoxypyrimidine-4-carboxylate]	5 g ai/ha	10 g ai/ha	95 to 100%	95 to 100%	60 to 74%	60 to 74%	17 g ai/ha	80 g ai/ha	85 to 94%	95 to 100%		23 g ai/ha	
COC(=O)c1nc(-c2ccccc2)c(F)c(N)c1Cl [Compound 181]													pest or weed control at 1760 g/ha ([5]; 1.76 kg ai/ha): 0 to 29%; pest or weed control at 1760 g/ha ([6]; 1.76 kg ai/ha): 85 to 94%
COC(=O)c1nc(-c2ccc(C(F)F)c(F)c2)cc(N)c1Cl [Compound 196]													pest or weed control at 3840 g/ha [4]: 85 to 94%; pest or weed control at 3840 g/ha [6]: 95 to 100%
COC(=O)c1nc(-c2cccc(F)c2F)c(F)c(N)c1Cl [Compound 199]													pest or weed control at 4000 g/ha [4]: 0 to 29%; pest or weed control at 4000 g/ha [6]: 60 to 74%
COC(=O)c1nc(-c2ccccc2F)c(F)c(N)c1Cl [Compound 206]													pest or weed control at 4040 g/ha ([4]; 4.04 kg ai/ha): 0 to 29%; pest or weed control at 4040 g/ha ([6]; 4.04 kg ai/ha): 95 to 100%
